Test results from PubChem BioAssay AID2060349 (Molecular Pharmacology Branch, DTP, NCI, 2025).

Test system: 762968-020-R-J2-PDC spheroids viability
Assay: Anticancer human tumor 762968-020-R-J2-PDC patient-derived colon carcinoma cell line growth inhibition [TAK]
Settings: spheroids with HUVEC and MSC; for IC50: curve of first compound; for viability, T/C: stronger effect = lower value
Outline: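 Spheroids of 60% malignant cells, 25% HUVEC and 15% hMSC were exposed to targeted agents combined with TAK-243 or ipatasertib. Concentrations started at or near clinical Cmax (10 microM if unknown) and descended in half-log steps.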

[1] = second compound 0.3 µM, first compound 0.0316 µM
[2] = second compound 0.3 µM, first compound 0.1 µM
[3] = second compound 0.3 µM, first compound 0.316 µM
[4] = second compound 0.3 µM, first compound 1 µM
[5] = second compound 0.3 µM, first compound 3.16 µM
[6] = second compound 0.3 µM, first compound 10 µM
[7] = second compound 0.949 µM, first compound 0.0316 µM
[8] = second compound 0.949 µM, first compound 0.1 µM
[9] = second compound 0.949 µM, first compound 0.316 µM
[10] = second compound 0.949 µM, first compound 1 µM
[11] = second compound 0.949 µM, first compound 3.16 µM
[12] = second compound 0.949 µM, first compound 10 µM
[13] = second compound 3 µM, first compound 0.0316 µM
[14] = second compound 3 µM, first compound 0.1 µM
[15] = second compound 3 µM, first compound 0.316 µM
[16] = second compound 3 µM, first compound 1 µM
[17] = second compound 3 µM, first compound 3.16 µM
[18] = second compound 3 µM, first compound 10 µM
[19] = second compound 9.49 µM, first compound 0.0316 µM
[20] = second compound 9.49 µM, first compound 0.1 µM
[21] = second compound 9.49 µM, first compound 0.316 µM
[22] = second compound 9.49 µM, first compound 1 µM
[23] = second compound 9.49 µM, first compound 3.16 µM
[24] = second compound 9.49 µM, first compound 10 µM
[25] = second compound 30 µM, first compound 0.0316 µM
[26] = second compound 30 µM, first compound 0.1 µM
[27] = second compound 30 µM, first compound 0.316 µM
[28] = second compound 30 µM, first compound 1 µM
[29] = second compound 30 µM, first compound 3.16 µM
[30] = second compound 30 µM, first compound 10 µM
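Note: spheroids exposed to drug for 7 days before readout.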
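Throughout, for viability, T/C: 100% = DMSO vehicle control wells.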

## CC(C)(C)c1nc(-c2cccc(NS(=O)(=O)c3c(F)cccc3F)c2F)c(-c2ccnc(N)n2)s1 + CC(C)NCC(C(=O)N1CCN(c2ncnc3c2C(C)CC3O)CC1)c1ccc(Cl)cc1
Second compound 0.3 µM
  IC50: > 10 µM
Second compound 0.949 µM
  IC50: > 10 µM
Second compound 3 µM
  IC50: > 10 µM
Second compound 9.49 µM
  IC50: > 10 µM
Second compound 30 µM
  IC50: > 10 µM
[1]
  viability, T/C: 92.8%
[2]
  viability, T/C: 91.4%
[3]
  viability, T/C: 84.8%
[4]
  viability, T/C: 84.3%
[5]
  viability, T/C: 92.4%
[6]
  viability, T/C: 94.7%
[7]
  viability, T/C: 93.9%
[8]
  viability, T/C: 90.2%
[9]
  viability, T/C: 84.6%
[10]
  viability, T/C: 86%
[11]
  viability, T/C: 88.4%
[12]
  viability, T/C: 92.8%
[13]
  viability, T/C: 95.6%
[14]
  viability, T/C: 87.1%
[15]
  viability, T/C: 94.8%
[16]
  viability, T/C: 85.9%
[17]
  viability, T/C: 92%
[18]
  viability, T/C: 95%
[19]
  viability, T/C: 92.5%
[20]
  viability, T/C: 86.4%
[21]
  viability, T/C: 83.9%
[22]
  viability, T/C: 79.9%
[23]
  viability, T/C: 72%
[24]
  viability, T/C: 92.5%
[25]
  viability, T/C: 81.4%
[26]
  viability, T/C: 80.5%
[27]
  viability, T/C: 81.6%
[28]
  viability, T/C: 74.1%
[29]
  viability, T/C: 74.5%
[30]
  viability, T/C: 93.5%

## CC(C)n1nc(-c2ccc3oc(N)nc3c2)c2c(N)ncnc21 + CC(C)NCC(C(=O)N1CCN(c2ncnc3c2C(C)CC3O)CC1)c1ccc(Cl)cc1
Second compound 0.3 µM
  IC50: > 0.1 µM
Second compound 0.949 µM
  IC50: > 0.1 µM
Second compound 3 µM
  IC50: > 0.1 µM
Second compound 9.49 µM
  IC50: > 0.1 µM
Second compound 30 µM
  IC50: > 0.1 µM
Second compound 0.3 µM, first compound 0.000316 µM
  viability, T/C: 96.5%
Second compound 0.3 µM, first compound 0.001 µM
  viability, T/C: 97.1%
Second compound 0.3 µM, first compound 0.00316 µM
  viability, T/C: 101%
Second compound 0.3 µM, first compound 0.01 µM
  viability, T/C: 91.8%
[1]
  viability, T/C: 87.5%
[2]
  viability, T/C: 72.9%
Second compound 0.949 µM, first compound 0.000316 µM
  viability, T/C: 96.9%
Second compound 0.949 µM, first compound 0.001 µM
  viability, T/C: 96.7%
Second compound 0.949 µM, first compound 0.00316 µM
  viability, T/C: 99.9%
Second compound 0.949 µM, first compound 0.01 µM
  viability, T/C: 99.3%
[7]
  viability, T/C: 87.4%
[8]
  viability, T/C: 73.2%
Second compound 3 µM, first compound 0.000316 µM
  viability, T/C: 99.5%
Second compound 3 µM, first compound 0.001 µM
  viability, T/C: 95.1%
Second compound 3 µM, first compound 0.00316 µM
  viability, T/C: 103%
Second compound 3 µM, first compound 0.01 µM
  viability, T/C: 93.4%
[13]
  viability, T/C: 92.3%
[14]
  viability, T/C: 65.7%
Second compound 9.49 µM, first compound 0.000316 µM
  viability, T/C: 94.4%
Second compound 9.49 µM, first compound 0.001 µM
  viability, T/C: 103%
Second compound 9.49 µM, first compound 0.00316 µM
  viability, T/C: 98.3%
Second compound 9.49 µM, first compound 0.01 µM
  viability, T/C: 93.4%
[19]
  viability, T/C: 79.1%
[20]
  viability, T/C: 63.5%
Second compound 30 µM, first compound 0.000316 µM
  viability, T/C: 83%
Second compound 30 µM, first compound 0.001 µM
  viability, T/C: 84.2%
Second compound 30 µM, first compound 0.00316 µM
  viability, T/C: 84.3%
Second compound 30 µM, first compound 0.01 µM
  viability, T/C: 81.9%
[25]
  viability, T/C: 74%
[26]
  viability, T/C: 63.6%

## CCCS(=O)(=O)Nc1ccc(F)c(C(=O)c2c[nH]c3ncc(-c4ccc(Cl)cc4)cc23)c1F + CC(C)NCC(C(=O)N1CCN(c2ncnc3c2C(C)CC3O)CC1)c1ccc(Cl)cc1
Second compound 0.3 µM
  IC50: > 100 µM
Second compound 0.949 µM
  IC50: 23.6 µM
Second compound 3 µM
  IC50: > 100 µM
Second compound 9.49 µM
  IC50: > 100 µM
Second compound 30 µM
  IC50: 17.9 µM
[3]
  viability, T/C: 94.5%
[4]
  viability, T/C: 95.2%
[5]
  viability, T/C: 94.4%
[6]
  viability, T/C: 72.3%
Second compound 0.3 µM, first compound 31.6 µM
  viability, T/C: 13.6%
Second compound 0.3 µM, first compound 100 µM
  viability, T/C: 97.5%
[9]
  viability, T/C: 89.9%
[10]
  viability, T/C: 93.2%
[11]
  viability, T/C: 94.6%
[12]
  viability, T/C: 57.5%
Second compound 0.949 µM, first compound 31.6 µM
  viability, T/C: 1.16%
Second compound 0.949 µM, first compound 100 µM
  viability, T/C: 93.7%
[15]
  viability, T/C: 97.6%
[16]
  viability, T/C: 93.3%
[17]
  viability, T/C: 101%
[18]
  viability, T/C: 71.3%
Second compound 3 µM, first compound 31.6 µM
  viability, T/C: 0.49%
Second compound 3 µM, first compound 100 µM
  viability, T/C: 97.8%
[21]
  viability, T/C: 91.9%
[22]
  viability, T/C: 94.1%
[23]
  viability, T/C: 89.1%
[24]
  viability, T/C: 70.2%
Second compound 9.49 µM, first compound 31.6 µM
  viability, T/C: 18.5%
Second compound 9.49 µM, first compound 100 µM
  viability, T/C: 105%
[27]
  viability, T/C: 77.2%
[28]
  viability, T/C: 90.9%
[29]
  viability, T/C: 87.4%
[30]
  viability, T/C: 53.6%
Second compound 30 µM, first compound 31.6 µM
  viability, T/C: 2.13%
Second compound 30 µM, first compound 100 µM
  viability, T/C: 90.7%
